In ChEMBL document CHEMBL1828619, “Identification of pyridazin-3-one derivatives as potent, selective histamine H₃ receptor inverse agonists with robust wake activity” (Bioorg Med Chem Lett, 2011):
Blank lines part the entries; values can stand above or below the compound they belong to. Activity calls are given as the source filed them. The rule behind the calls is not given here.

What was measured:
Histamine H3 receptor [1] = molecular target: T1, Histamine H3 receptor (Homo sapiens, UniProt Q9Y5N1); test: Displacement of [3H]NAMH from human cloned histamine 3 receptor expressed in CHO cells; format: cell-based
Histamine H3 receptor [2] = molecular target: Histamine H3 receptor (Rattus norvegicus, UniProt Q9QYN8); test: Displacement of [3H]NAMH from rat cloned histamine 3 receptor expressed in CHO cells; format: cell-based
[3] = Oral bioavailability in rat; format: ADME, organism-based; conditions: in vivo
[4] = Ratio of drug level in brain to plasma in iv dosed rat; format: ADME, organism-based; conditions: read-out: BPR
[5] = Half life in mouse liver microsomes; format: ADME, Microsome
[6] = Half life in rat liver microsomes; format: ADME, Microsome
[7] = Half life in dog liver microsomes; format: ADME, Canis lupus familiaris, Microsome
[8] = Half life in monkey liver microsomes; format: ADME, Macaca mulatta, Microsome; conditions: rhesus monkey
[9] = Half life in human liver microsomes; format: ADME, Microsome
Cytochrome P450 1A2 = molecular target: T2, Cytochrome P450 1A2 (Homo sapiens, UniProt P05177); test: Inhibition of CYP1A2; format: ADME
T2 sequence (P05177 whole entry): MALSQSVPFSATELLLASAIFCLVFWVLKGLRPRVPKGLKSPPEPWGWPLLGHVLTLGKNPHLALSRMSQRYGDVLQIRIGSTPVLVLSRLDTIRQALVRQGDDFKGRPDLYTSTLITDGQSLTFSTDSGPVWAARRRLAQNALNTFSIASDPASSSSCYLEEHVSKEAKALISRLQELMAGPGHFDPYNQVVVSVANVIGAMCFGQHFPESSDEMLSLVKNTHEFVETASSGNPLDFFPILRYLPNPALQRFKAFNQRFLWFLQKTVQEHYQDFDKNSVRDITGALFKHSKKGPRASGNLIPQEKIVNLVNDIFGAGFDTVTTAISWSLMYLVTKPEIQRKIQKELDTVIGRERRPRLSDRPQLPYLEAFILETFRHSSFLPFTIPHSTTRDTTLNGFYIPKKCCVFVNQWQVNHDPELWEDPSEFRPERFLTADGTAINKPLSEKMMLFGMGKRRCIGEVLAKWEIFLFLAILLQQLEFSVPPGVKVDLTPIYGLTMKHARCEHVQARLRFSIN

Cytochrome P450 2C9 = Cytochrome P450 2C9 (Homo sapiens, UniProt P11712); test: Inhibition of CYP2C9; format: ADME
Cytochrome P450 2C19 = Cytochrome P450 2C19 (Homo sapiens, UniProt P33261); test: Inhibition of CYP2C19; format: ADME
Cytochrome P450 2D6 = Cytochrome P450 2D6 (Homo sapiens, UniProt P10635); test: Inhibition of CYP2D6; format: ADME
Cytochrome P450 3A4 = Cytochrome P450 3A4 (Homo sapiens, UniProt P08684); test: Inhibition of CYP3A4; format: ADME
[10] = molecular target: Voltage-gated inwardly rectifying potassium channel KCNH2 (Homo sapiens, UniProt Q12809); test: Inhibition of human ERG by patch express assay
[11] = Half life in iv dosed rat; format: ADME, organism-based; conditions: in vivo
[12] = Clearance in iv dosed rat; format: ADME, organism-based; conditions: in vivo
[13] = Volume of distribution in iv dosed rat; format: ADME, organism-based; conditions: in vivo
Rattus norvegicus [14] = test: Induction of wake promoting activity in EEG/EMG Sprague-Dawley rat model assessed as increase in waking time at 30 mg/kg, ip after 4 hrs; format: functional; conditions: route intraperitoneal
Rattus norvegicus [15] = test: Induction of wake promoting activity in ip dosed EEG/EMG Sprague-Dawley rat model assessed as increase in waking time after 4 hrs; format: functional, organism-based
[16] = Ratio of drug level in brain to plasma in rat at 5 mg/kg, po; format: ADME, organism-based; parameters: dose 5 mg/kg, route oral; conditions: read-out: BPR
[17] = Solubility of the compound at pH 2; format: physicochemical; conditions: buffer
[18] = Solubility of the compound at pH 7.4; format: physicochemical; conditions: buffer
[19] = molecular target: Histamine H1 receptor (Homo sapiens) (UniProt P35367); test: Inhibition of human histamine H1 receptor at 10 uM
[20] = molecular target: Histamine H2 receptor (Homo sapiens) (UniProt P25021); test: Inhibition of human histamine H2 receptor at 10 uM
[21] = molecular target: Histamine H4 receptor (Homo sapiens) (UniProt Q9H3N8); test: Inhibition of human histamine H4 receptor at 10 uM
[22] = molecular target: Sodium-dependent noradrenaline transporter (Homo sapiens) (UniProt P23975); test: Inhibition of NET at 10 uM
Histamine H3 receptor [23] = molecular target: T1, Histamine H3 receptor; test: Antagonist activity at human histamine 3 receptor by [35S]GTPgammaS binding assay; format: functional
Histamine H3 receptor [24] = molecular target: T1, Histamine H3 receptor; test: Inverse activity against human histamine 3 receptor by [35S]GTPgammaS binding assay; format: functional
[25] = Half life in rat at 1 mg/kg, iv after 6 hrs; format: ADME, organism-based; parameters: dose 1 mg/kg, route intravenous; conditions: in vivo
[26] = Clearance in rat at 1 mg/kg, iv after 6 hrs; format: ADME, organism-based; parameters: dose 1 mg/kg, route intravenous; conditions: in vivo
[27] = Volume of distribution in rat at 1 mg/kg, iv after 6 hrs; format: ADME, organism-based; parameters: dose 1 mg/kg, route intravenous; conditions: in vivo
[28] = AUC (0 to 6 hrs) in rat at 5 mg/kg, po; format: ADME, organism-based; parameters: time < 6 hr, dose 5 mg/kg, route oral; conditions: plasma
[29] = Cmax in rat at 5 mg/kg, po after 6 hrs; format: ADME, organism-based; parameters: dose 5 mg/kg, route oral; conditions: in vivo
[30] = Half life in rat at 5 mg/kg, po after 6 hrs; format: ADME, organism-based; parameters: dose 5 mg/kg, route oral; conditions: in vivo
[31] = Oral bioavailability in rat at 5 mg/kg after 6 hrs; format: ADME, organism-based; conditions: in vivo
Rattus norvegicus [32] = test: Inhibition of (R)-alpha-methyl histamine-induced dipsogenia in ip dosed rat; format: functional
Rattus norvegicus [33] = test: Induction of wake promoting activity in EEG/EMG Sprague-Dawley rat model assessed as increase in waking time at 10 mg/kg, ip after 4 hrs; format: functional; conditions: route intraperitoneal

T1 sequence (Q9Y5N1 whole entry): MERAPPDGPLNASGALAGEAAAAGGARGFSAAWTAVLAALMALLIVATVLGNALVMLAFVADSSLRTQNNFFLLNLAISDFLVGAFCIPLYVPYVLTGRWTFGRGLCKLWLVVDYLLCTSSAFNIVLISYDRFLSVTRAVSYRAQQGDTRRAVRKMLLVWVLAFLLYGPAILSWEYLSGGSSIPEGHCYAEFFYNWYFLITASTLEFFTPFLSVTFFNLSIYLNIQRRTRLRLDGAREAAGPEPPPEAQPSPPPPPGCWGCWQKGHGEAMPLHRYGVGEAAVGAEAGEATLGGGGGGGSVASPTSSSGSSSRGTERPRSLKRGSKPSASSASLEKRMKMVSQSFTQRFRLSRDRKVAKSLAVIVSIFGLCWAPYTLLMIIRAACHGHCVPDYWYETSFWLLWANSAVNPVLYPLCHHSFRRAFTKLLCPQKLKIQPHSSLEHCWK
Histamine H3 receptor (Rattus norvegicus, UniProt Q9QYN8), sequence (Q9QYN8 whole entry): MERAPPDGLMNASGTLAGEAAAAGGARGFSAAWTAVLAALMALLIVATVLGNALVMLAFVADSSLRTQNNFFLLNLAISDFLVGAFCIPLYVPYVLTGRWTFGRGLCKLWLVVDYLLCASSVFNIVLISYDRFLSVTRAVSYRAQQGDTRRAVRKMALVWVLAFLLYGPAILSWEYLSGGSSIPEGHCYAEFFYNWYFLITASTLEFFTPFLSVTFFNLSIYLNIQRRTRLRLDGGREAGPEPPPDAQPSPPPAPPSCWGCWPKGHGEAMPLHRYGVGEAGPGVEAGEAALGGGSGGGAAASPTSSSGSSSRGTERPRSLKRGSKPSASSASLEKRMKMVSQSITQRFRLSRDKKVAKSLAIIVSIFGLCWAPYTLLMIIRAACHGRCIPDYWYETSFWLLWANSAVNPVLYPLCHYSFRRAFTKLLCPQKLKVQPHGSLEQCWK
Cytochrome P450 2C9, sequence (P11712 whole entry): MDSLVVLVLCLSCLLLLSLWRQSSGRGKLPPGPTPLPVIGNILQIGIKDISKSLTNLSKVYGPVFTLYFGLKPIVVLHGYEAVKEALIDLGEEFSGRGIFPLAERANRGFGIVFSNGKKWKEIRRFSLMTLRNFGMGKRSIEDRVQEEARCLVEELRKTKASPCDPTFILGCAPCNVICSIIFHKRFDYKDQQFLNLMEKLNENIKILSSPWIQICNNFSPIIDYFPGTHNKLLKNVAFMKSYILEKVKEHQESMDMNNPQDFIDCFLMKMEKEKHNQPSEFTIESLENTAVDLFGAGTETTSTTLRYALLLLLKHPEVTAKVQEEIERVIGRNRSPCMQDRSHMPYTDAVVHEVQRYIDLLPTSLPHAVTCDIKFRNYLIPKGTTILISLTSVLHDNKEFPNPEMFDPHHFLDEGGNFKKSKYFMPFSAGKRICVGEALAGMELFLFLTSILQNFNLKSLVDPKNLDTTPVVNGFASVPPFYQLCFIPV
Cytochrome P450 3A4, sequence (P08684 whole entry): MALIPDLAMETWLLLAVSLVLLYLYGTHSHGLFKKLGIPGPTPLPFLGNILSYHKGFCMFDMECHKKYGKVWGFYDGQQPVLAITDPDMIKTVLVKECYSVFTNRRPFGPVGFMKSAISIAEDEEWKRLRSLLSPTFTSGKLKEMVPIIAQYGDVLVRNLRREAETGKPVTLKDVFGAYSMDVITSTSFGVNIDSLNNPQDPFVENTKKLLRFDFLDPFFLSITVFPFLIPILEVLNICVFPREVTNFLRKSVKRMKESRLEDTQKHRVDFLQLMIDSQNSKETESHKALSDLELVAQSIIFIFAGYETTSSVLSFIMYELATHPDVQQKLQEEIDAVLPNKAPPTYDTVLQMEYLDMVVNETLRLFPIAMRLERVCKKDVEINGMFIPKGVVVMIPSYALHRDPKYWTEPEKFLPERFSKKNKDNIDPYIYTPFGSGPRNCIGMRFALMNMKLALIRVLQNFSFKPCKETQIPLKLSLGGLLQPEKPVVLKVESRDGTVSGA
Cytochrome P450 2D6, sequence (P10635 whole entry): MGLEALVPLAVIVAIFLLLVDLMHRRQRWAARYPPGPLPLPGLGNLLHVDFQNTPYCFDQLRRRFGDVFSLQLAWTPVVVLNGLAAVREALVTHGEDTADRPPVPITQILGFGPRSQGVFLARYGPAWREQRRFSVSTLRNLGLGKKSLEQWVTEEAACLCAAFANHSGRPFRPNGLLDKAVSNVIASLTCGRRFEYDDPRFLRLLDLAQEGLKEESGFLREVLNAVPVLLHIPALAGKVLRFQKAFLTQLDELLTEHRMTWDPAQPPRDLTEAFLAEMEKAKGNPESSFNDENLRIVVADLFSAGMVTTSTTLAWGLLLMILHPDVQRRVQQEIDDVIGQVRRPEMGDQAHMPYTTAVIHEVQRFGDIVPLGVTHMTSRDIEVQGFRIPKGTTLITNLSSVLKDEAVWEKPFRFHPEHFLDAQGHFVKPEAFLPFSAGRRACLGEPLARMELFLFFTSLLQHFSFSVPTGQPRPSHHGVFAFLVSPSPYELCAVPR
Cytochrome P450 2C19, sequence (P33261 whole entry): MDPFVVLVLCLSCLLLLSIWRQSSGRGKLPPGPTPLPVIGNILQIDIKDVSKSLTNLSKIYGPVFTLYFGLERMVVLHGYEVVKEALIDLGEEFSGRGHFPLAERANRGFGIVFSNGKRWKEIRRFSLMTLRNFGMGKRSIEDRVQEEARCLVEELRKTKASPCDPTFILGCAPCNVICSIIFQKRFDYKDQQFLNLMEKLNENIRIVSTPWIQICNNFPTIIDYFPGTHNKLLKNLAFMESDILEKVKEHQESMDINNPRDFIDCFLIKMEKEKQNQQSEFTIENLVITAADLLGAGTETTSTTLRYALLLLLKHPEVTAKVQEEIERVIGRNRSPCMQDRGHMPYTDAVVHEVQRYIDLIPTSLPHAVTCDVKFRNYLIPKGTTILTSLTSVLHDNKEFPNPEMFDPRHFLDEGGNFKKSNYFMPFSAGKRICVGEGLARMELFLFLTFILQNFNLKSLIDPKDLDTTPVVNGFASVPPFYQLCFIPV
Voltage-gated inwardly rectifying potassium channel KCNH2, sequence (Q12809 whole entry): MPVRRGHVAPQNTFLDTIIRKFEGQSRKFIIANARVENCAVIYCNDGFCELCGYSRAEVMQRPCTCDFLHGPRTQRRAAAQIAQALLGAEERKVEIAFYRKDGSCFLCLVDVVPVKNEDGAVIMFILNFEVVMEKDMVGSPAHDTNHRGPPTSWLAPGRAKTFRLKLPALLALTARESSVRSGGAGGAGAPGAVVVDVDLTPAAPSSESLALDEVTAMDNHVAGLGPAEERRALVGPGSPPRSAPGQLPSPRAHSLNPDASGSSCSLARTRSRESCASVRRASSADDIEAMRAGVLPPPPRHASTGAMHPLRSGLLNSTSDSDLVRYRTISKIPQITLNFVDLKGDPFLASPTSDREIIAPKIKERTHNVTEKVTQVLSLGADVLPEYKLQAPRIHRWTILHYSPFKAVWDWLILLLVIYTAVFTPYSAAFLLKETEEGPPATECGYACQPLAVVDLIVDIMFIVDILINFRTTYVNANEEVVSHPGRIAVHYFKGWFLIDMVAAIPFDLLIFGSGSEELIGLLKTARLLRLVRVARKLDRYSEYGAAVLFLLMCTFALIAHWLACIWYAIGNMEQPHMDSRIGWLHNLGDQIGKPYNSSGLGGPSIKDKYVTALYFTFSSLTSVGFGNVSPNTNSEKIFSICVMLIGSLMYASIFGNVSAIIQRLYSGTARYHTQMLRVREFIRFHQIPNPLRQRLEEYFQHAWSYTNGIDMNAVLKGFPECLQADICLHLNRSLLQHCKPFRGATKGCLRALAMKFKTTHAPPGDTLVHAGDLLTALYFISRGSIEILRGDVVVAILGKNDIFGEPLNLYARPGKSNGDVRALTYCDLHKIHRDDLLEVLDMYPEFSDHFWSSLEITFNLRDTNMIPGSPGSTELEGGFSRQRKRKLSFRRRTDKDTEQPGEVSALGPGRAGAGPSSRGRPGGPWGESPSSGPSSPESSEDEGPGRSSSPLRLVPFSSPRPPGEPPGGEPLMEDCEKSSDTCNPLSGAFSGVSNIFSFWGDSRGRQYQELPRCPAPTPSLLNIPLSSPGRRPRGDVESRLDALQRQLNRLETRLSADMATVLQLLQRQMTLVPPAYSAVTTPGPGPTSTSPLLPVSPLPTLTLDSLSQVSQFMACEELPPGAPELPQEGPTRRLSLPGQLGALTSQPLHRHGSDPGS
Histamine H1 receptor (Homo sapiens), sequence (P35367 whole entry): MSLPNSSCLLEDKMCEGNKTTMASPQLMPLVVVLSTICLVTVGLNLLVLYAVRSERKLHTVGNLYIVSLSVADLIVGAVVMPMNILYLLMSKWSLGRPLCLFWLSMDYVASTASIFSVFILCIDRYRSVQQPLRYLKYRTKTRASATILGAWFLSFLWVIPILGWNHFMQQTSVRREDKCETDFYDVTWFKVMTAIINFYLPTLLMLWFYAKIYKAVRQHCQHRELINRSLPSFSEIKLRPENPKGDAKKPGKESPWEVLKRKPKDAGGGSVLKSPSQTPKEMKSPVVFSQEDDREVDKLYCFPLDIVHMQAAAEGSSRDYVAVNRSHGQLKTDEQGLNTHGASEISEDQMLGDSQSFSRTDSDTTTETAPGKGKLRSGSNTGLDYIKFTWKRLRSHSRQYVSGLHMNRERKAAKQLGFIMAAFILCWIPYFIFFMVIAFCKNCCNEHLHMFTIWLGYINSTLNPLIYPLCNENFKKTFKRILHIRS
Histamine H2 receptor (Homo sapiens), sequence (P25021 whole entry): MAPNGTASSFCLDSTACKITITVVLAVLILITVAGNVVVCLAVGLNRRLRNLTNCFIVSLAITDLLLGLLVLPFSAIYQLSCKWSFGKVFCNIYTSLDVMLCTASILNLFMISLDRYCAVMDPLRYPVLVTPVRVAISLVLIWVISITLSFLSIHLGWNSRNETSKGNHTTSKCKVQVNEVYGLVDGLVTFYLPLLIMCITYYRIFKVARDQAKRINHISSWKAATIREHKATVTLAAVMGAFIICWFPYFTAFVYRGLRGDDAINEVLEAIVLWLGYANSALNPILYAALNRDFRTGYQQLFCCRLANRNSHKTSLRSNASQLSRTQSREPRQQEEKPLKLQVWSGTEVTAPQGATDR

SMILES: C[C@@H]1CCCN1CCCOc1ccc(-c2ccc(=O)n(-c3ccccn3)n2)cc1
Ki (Histamine H3 receptor [1]): 10 nM
Ki (Histamine H3 receptor [2]): 22 nM

SMILES: C[C@@H]1CCCN1CCCOc1ccc(-c2ccc(=O)n(CC(F)(F)F)n2)cc1
Ki (Histamine H3 receptor [1]): 5.7 nM
Ki (Histamine H3 receptor [2]): 11 nM

SMILES: Cc1cc(-c2ccc(OCCCN3CCC[C@H]3C)cc2)n[nH]c1=O
Ki (Histamine H3 receptor [1]): 3.4 nM
Ki (Histamine H3 receptor [2]): 8.7 nM

SMILES: C[C@@H]1CCCN1CCCOc1ccc(-c2ccc(=O)n(C)n2)cc1F
Time (Rattus norvegicus [14]): 184 min
Activity (Rattus norvegicus [15]): Dose-dependent effect
Kp [16]: 3.4
Ki (Histamine H3 receptor [1]): 5.8 nM
Ki (Histamine H3 receptor [2]): 27 nM
half-life [5]: > 40 min
half-life [6]: > 40 min
half-life [7]: > 40 min
half-life [8]: > 40 min
half-life [9]: > 40 min
IC50 (Cytochrome P450 1A2): > 30000 nM
IC50 (Cytochrome P450 2C9): > 30000 nM
IC50 (Cytochrome P450 2C19): > 30000 nM
IC50 (Cytochrome P450 2D6): > 30000 nM
IC50 (Cytochrome P450 3A4): > 30000 nM
solubility [17]: > 250 µg/mL
solubility [18]: > 250 µg/mL
inhibition [19]: < 30%
inhibition [20]: < 30%
inhibition [21]: < 30%
inhibition [22]: > 70%
EC50 (Histamine H3 receptor [23]): 1.3 nM
Activity (Histamine H3 receptor [24]): Active
half-life [25]: 72 min
clearance [26]: 38 mL/min/kg
Vd [27]: 4.5 L/kg
AUC(0-t) at 6 h [28]: 936 ng·h/mL
Cmax [29]: 284 ng/mL
half-life [30]: 96 min
bioavailability [31]: 42%
ED50 (Rattus norvegicus [32]): 0.13 mg/kg
inhibition (Rattus norvegicus [32]): Dose-dependent effect
Time (Rattus norvegicus [33]): 157 min

SMILES: C[C@@H]1CCCN1CCCOc1ccc(-c2ccc(=O)[nH]n2)cn1
Ki (Histamine H3 receptor [1]): 35 nM
Ki (Histamine H3 receptor [2]): 70 nM

More lines, main results first:

Ki (Histamine H3 receptor [1]): 16 nM
Ki (Histamine H3 receptor [2]): 69 nM
SMILES: C[C@@H]1CCCN1CCCOc1ccc(-c2ccc(=O)[nH]n2)c(F)c1

Ki (Histamine H3 receptor [1]): 3.4 nM
Ki (Histamine H3 receptor [2]): 11 nM
SMILES: C[C@@H]1CCCN1CCCOc1ccc(-c2ccc(=O)n(CCF)n2)cc1

Ki (Histamine H3 receptor [1]): 12 nM
Ki (Histamine H3 receptor [2]): 70 nM
bioavailability [3]: < 10%
Kp [4]: < 1
SMILES: C[C@@H]1CCCN1CCCOc1ccc(-c2n[nH]c(=O)cc2-c2ccccn2)cc1

Ki (Histamine H3 receptor [1]): 1.4 nM
Ki (Histamine H3 receptor [2]): 7.9 nM
half-life [5]: > 40 min
half-life [6]: > 40 min
half-life [7]: > 40 min
half-life [8]: > 40 min
half-life [9]: > 40 min
IC50 (Cytochrome P450 1A2): > 30000 nM
IC50 (Cytochrome P450 2C9): > 30000 nM
IC50 (Cytochrome P450 2C19): > 30000 nM
IC50 (Cytochrome P450 2D6): > 30000 nM
IC50 (Cytochrome P450 3A4): > 30000 nM
half-life [11]: 90 min
clearance [12]: 29 mL/min/kg
Vd [13]: 3.9 L/kg
bioavailability [3]: 56%
Kp [4]: 0.5
SMILES: C[C@@H]1CCCN1CCCOc1ccc(-c2ccc(=O)n(-c3ncccn3)n2)cc1
IC50 [10]: > 10000 nM

Ki (Histamine H3 receptor [1]): 3 nM
Ki (Histamine H3 receptor [2]): 9.5 nM
SMILES: C[C@@H]1CCCN1CCCOc1ccc(-c2ccc(=O)n(CCO)n2)cc1
